The values below come from article PMC10055926.

Structures are written as SMILES. “And” between values parts separate entries of the source, which are not always exact repeats. Identical values can stand only once. “Also recorded” adds a separate entry of the source. Counter-ions that a name gives are not always drawn. Like-named read-outs stand apart in the source and are kept apart here.

By EC50 is commonly meant the midpoint of the concentration-response curve.

Data set [1] relates to HeLa-hACE2 cells. Put plainly: Immunofluorescence-based antiviral assay with LysoTracker dye in HeLa-hACE2. As to conditions: for LysoTracker signal intensity (in words): HeLa-hACE2, acidic organelle accumulation.
Data set [2] deals with SARS-CoV-2 pseudovirus (SARS2pp). Put plainly: microbe, parasite or virus in culture. The following applies: luciferase, 24 h, read-out: EC50, neutralization of SARS2pp entry in VeroE6. The class given is cell-based.
In data set [3] the test system is SARS-CoV-2. The data set is described as follows: Antiviral assessment in Caco-2 cells by visual CPE scoring. The class given is cell-based. As to conditions: read-out: EC50 against SARS-CoV-2 in Caco-2.
Data set [4] concerns HCoV-229E. The data set is described as follows: microbe, parasite or virus in culture. As to conditions: HCI (dsRNA stain), 24 h at 35 °C, read-out: EC50 against HCoV-229E in HeLa-hACE2. The class given is cell-based, human coronavirus 229E.
Data set [5] deals with SARS-CoV-1. The data set is described as follows: microbe, parasite or virus in culture. As to conditions: 24 h, read-out: EC50 against SARS-CoV-1 in A549-hACE2. The class given is cell-based.
Data set [6] relates to SARS-CoV-2. The data set is described as follows: Immunofluorescence (HCI, dsRNA stain) antiviral assay, SARS-CoV-2 in HeLa-hACE2. The class given is cell-based. As to conditions: read-out: EC50 against SARS-CoV-2 in HeLa-hACE2.
Data set [7] has as its system SARS-CoV-2. The data set is described as follows: Immunofluorescence (HCI, spike stain) antiviral assay, SARS-CoV-2 in A549-hACE2. The data set is classed as cell-based. As to conditions: read-out: EC50 against SARS-CoV-2 in A549-hACE2.
In data set [8] the test system is SARS-CoV-2. Put plainly: microbe, parasite or virus in culture. The following applies: for EC50: vRNA (qPCR), read-out: EC50 against SARS-CoV-2 in HNECs; for antiviral activity in HNEC ALI cultures (in words): viral RNA copies in apical washes over three days. The data set is classed as cell-based, SARS-CoV-2 (Lineage A, B.1).
Data set [9] relates to SARS-CoV-2. Put plainly: SARS-CoV-2 viral RNA copy determination in A549-hACE2 cells (RT-qPCR on supernatant). The data set is classed as cell-based. As to conditions: for reduction of SARS-CoV-2 RNA in the supernatant: A549-hACE2, RT-qPCR at 48 hpi; for EC50: read-out: EC50, viral RNA reduction in supernatant. A general note: Real-time PCR tracks product formation cycle by cycle.

The test system of data set [10] is A549-hACE2 cells. The data set is described as follows: Cytotoxicity in uninfected A549-hACE2 cells (ATPlite). The following applies: for CC50: read-out: CC50 in A549-hACE2, Toxicity (ATPlite), uninfected cells.
Assay in data set [11]: as above
The following applies: human, A549-hACE2 cells.

In data set [12] the test system is SARS-CoV-2. Put plainly: Time-of-addition (TOA) assay in HeLa-hACE2, dsRNA staining. The class given is cell-based. As to conditions: HeLa-hACE2, MOI 4, 2.5-5 µM compound, dsRNA readout at 8 hpi.
Data set [13] can be described thus: in vitro. The following applies: human, Caco-2.
Data set [14] addresses T1, cathepsin L (Homo sapiens, UniProt P07711).
T1 construct: purchased Eurofins (contract assay)
The data set is described as follows: Enzymatic cathepsin L inhibition assay (Eurofins). The class given is biochemical.

Data set [15] deals with SARS-CoV-2 pseudovirus (SARS2pp). The data set is described as follows: microbe, parasite or virus in culture. The class given is cell-based.
Data set [16] concerns SARS-CoV-2. Put plainly: SARS-CoV-2 antiviral assay in VeroE6-eGFP cells (CPE reduction, GFP). As to conditions: for EC50: MOI 0.001, 96 h.
Data set [17] can be described thus: in vitro. The following applies: African green monkey.
Data set [18] has as its system VeroE6-eGFP cells.
The test system of data set [19] is VeroE6 cells.
The nature of data set [20]: in vitro. The following applies: African green monkey. This is another data set of the same source.
In data set [21] the test system is SARS-CoV-2.
[22] abbreviates: Severe acute respiratory syndrome-related coronavirus, Vero C1008.
Setting [23] is: Severe acute respiratory syndrome coronavirus.
Where [24] appears, read: Severe acute respiratory syndrome coronavirus 2, 24 h.
Setting [25] is: A549-hACE2, SARS-CoV-2 MOI 0.1, RT-qPCR at 48 hpi.
Setting [26] is: Severe acute respiratory syndrome coronavirus 2, A549-hACE2, SARS-CoV-2 MOI 0.1, RT-qPCR at 48 hpi.
Where [27] appears, read: Severe acute respiratory syndrome-related coronavirus, VeroE6/TMPRSS2, SARS2pp, mean ± SD, unit inferred, [µM] only in axis labels, read-out: VeroE6 TMPRSS2: EC50 (Figure 6).
[28] abbreviates: Severe acute respiratory syndrome coronavirus 2, 96 h, read-out: EC50 against SARS-CoV-2 in VeroE6-eGFP, CPE reduction (GFP).
Where [29] appears, read: read-out: EC50 against SARS-CoV-2 in VeroE6-eGFP, CPE reduction (GFP).

T1 sequence (P07711 114-333): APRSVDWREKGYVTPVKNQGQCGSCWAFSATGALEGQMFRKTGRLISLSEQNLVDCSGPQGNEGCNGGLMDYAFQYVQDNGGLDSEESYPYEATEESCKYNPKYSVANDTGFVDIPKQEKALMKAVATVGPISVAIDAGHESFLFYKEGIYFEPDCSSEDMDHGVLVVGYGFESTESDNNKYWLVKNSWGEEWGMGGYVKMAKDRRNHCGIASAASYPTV

With `C[C@H](NC(=O)[C@H](Cc1ccc(O)cc1)NC(=O)OCc1ccccc1)C(=O)C=[N+]=[N-]`, the “LysoTracker signal intensity (in words)” value in data set [1] is listed as “did not significantly increase the intensity of the LysoTracker signal”. Also, the EC50 in [2] (setting [22]) is 0.13 µM; in data set [3] (Severe acute respiratory syndrome coronavirus 2, Caco-2, CPE reduction (manual scoring), MOI 0.01, 48 h), more than 50 µM; in [4], 0.07 ± 0.01 µM; in data set [4] (Human coronavirus 229E, 24 h), 0.069 µM; in data set [5] (setting [23]), 0.05 ± 0.016 µM; in [6] (24 h), 0.01 ± 0.001 µM. In addition, the EC50 in data set [6] (setting [24]) is 0.006 µM; in data set [7] (24 h), 0.05 ± 0.003 µM; in data set [7] (setting [24]) it was 0.046 µM; in data set [8] (Severe acute respiratory syndrome coronavirus 2) it was more than 20 µM; in [9] (setting [25]), 0.321 µM; in [9] (setting [26]), 0.32 µM. Moreover, the half-maximal effective concentration (EC50) is less than 0.05 µM in data set [14] (enzymatic assay, substrate Z-Phe-Arg AMC, one experiment); more than 30 µM in data set [15] (setting [27]); 1.33 ± 0.49 µM in data set [16] (setting [28]). Also, the “antiviral activity in HNEC ALI cultures (in words)” value in [8] (compound at 20 µM) was “does not inhibit SARS-CoV-2 infection; also recorded: did not show antiviral activity”. For the same compound, in data set [8] (concentration not given), the “antiviral activity in differentiated HNECs (in words)” value was “did not show antiviral activity”. In addition, the “reduction of SARS-CoV-2 RNA in the supernatant” value (“reduction of SARS-CoV-2 RNA” below) in [9] is ~ 4 log and 4 log. Further, the “cytotoxicity (in words)” value in [10] (uninfected A549-hACE2, ATPlite) is recorded as “did not show cytotoxicity”. In addition, the figures for the CC50 in data set [11] and in [13] were more than 25 µM and more than 50 µM, respectively. In data set [12], the “time of addition from which antiviral activity was lost” value is listed as not below 2 h post virus infection. The “activity against SARS2pp in VeroE6 TMPRSS2 (in words)” value in [15] was “not active at all”. In data set [16] (CC50/EC50 in VeroE6-eGFP), the “selectivity index (SI), VeroE6-eGFP SARS-CoV-2” value is recorded as more than 15.
`CN(C)C(=O)COC(=O)Cc1ccc(OC(=O)c2ccc(NC(=N)N)cc2)cc1` [Camostat mesylate, camostat mesylate]: the EC50 in data set [2] (setting [22]) is more than 30 µM; in data set [15] (setting [27]) it was 18 ± 5.52 µM; in data set [15] (Severe acute respiratory syndrome-related coronavirus, VeroE6/TMPRSS2, luciferase, 24 h, read-out: EC50, neutralization of SARS2pp entry in VeroE6 TMPRSS2) it was approximately 18 µM. Besides, the CC50 in data set [17] is more than 30 µM.
For `CN1CCN(C(=O)N[C@@H](Cc2ccccc2)C(=O)N[C@H](/C=C/S(=O)(=O)c2ccccc2)CCc2ccccc2)CC1` [K777], in [1] (HeLa-hACE2, adjusted p-value < 0.05 vs virus control), the “concentration at which the LysoTracker signal is significantly increased” value was not below 2.2 µM. Also, the EC50 was found to be 0.023 µM in data set [2]; 0.002 ± 0.0004 µM in data set [4]; 0.003 ± 0.0005 µM in data set [5] (HCI (spike stain), MOI 0.1); 0.0006 ± 5e-05 µM in data set [6] (24 h); 0.004 ± 0.0002 µM in data set [7] (24 h); 18.6 µM in [15] (luciferase, 24 h, read-out: EC50, neutralization of SARS2pp entry in VeroE6 TMPRSS2). Also, the EC50 in [16] (setting [29]) is 0.54 ± 0.14 µM. Also, the CC50 in [18] is approximately 50 µM; in data set [19], more than 30 µM; in data set [10], more than 0.05 µM.
With `CC(C)C(=O)OC[C@H]1O[C@@H](n2ccc(NO)nc2=O)[C@H](O)[C@@H]1O` [Molnu-Piravir, molnupiravir], the CC50 was more than 100 µM in [20] and more than 50 µM in [11]. Also, the EC50 came out at 1.32 ± 0.18 µM in data set [4] (Human coronavirus 229E, 24 h) and 1.01 ± 0.11 µM in data set [6] (setting [24]).
On to `COc1cccc2[nH]c(C(=O)N[C@@H](CC(C)C)C(=O)N[C@@H](C[C@@H]3CCNC3=O)C(=O)CO)cc12` [PF-00835231], for which the “LysoTracker signal intensity (in words)” value in data set [1] is recorded as “neither one of the compounds increased the intensity of the LysoTracker signal”. Moreover, the results for the CC50 in [18] and in data set [10] were more than 20 µM and more than 12.5 µM, respectively. Also, the EC50 in [4] was 0.47 ± 0.04 µM; in data set [5] (HCI (spike stain), MOI 0.1), 0.55 ± 0.04 µM; in [6] (24 h), 0.16 ± 0.02 µM; in data set [7] (24 h), 0.18 ± 0.008 µM; in data set [9] (setting [25]), 0.53 µM and 0.532 µM; in data set [16] (setting [29]) it was more than 50 µM. Besides, the “reduction of SARS-CoV-2 RNA” value in data set [9] is reported as ~ 4.8 log. For the same compound, the “time of addition until which inhibition of dsRNA formation was sustained” value in data set [12] is listed as ~ 4 hpi.
Consider `CC(C)(C)[C@H](NC(=O)C(F)(F)F)C(=O)N1C[C@H]2[C@@H]([C@H]1C(=O)N[C@H](C#N)C[C@@H]1CCNC1=O)C2(C)C` [PF-07321332, nirmatrelvir], for which, in data set [8] (compound at 2.5 µM), the “antiviral activity in HNEC ALI cultures (in words)” value was “did”. Besides, in [8], the EC50 came to 0.18 ± 0.14 µM. Besides, in [12], the “time of addition until which inhibition of dsRNA formation was sustained” value is reported as ~ 4 hpi.
`CCC(CC)COC(=O)[C@H](C)N[P@](=O)(OC[C@H]1O[C@@](C#N)(c2ccc3c(N)ncnn23)[C@H](O)[C@@H]1O)Oc1ccccc1` [Remdesivir, remdesivir]: the “LysoTracker signal intensity (in words)” value in data set [1] is “neither one of the compounds increased the intensity of the LysoTracker signal”. The CC50 in data set [20] was more than 100 µM; in data set [11], more than 25 µM. Also, the EC50 in [3] (Severe acute respiratory syndrome coronavirus 2, Caco-2, 48 h) turned out to be 0.77 ± 0.26 µM; in data set [4] (Human coronavirus 229E, 24 h), 0.11 ± 0.009 µM; in [5] (setting [23]), 0.33 ± 0.02 µM; in [6] (setting [24]), 0.11 ± 0.01 µM; in [7] (setting [24]) it was 0.18 ± 0.01 µM; in data set [21] it was 1.42 ± 0.15 µM. The EC50 is 0.411 µM in [9] (setting [25]), 0.41 µM in [9] (setting [26]) and 1.34 µM in data set [16] (setting [28]). Further, the “reduction of SARS-CoV-2 RNA” value in data set [9] is ~ 4.5 log. Also, the “time of addition until which inhibition of dsRNA formation was sustained” value in [12] is recorded as ~ 4 hpi.
In the case of `CC(=O)N[C@@H](CC(C)C)C(=O)N[C@@H](CC(C)C)C(=O)N[C@H](C=O)CCCNC(=N)N` [leupeptin], the “cathepsin L activity (in words)” value in data set [14] (positive control) is “blocked cathepsin L activity”.
